In patent US4693884A, “Technetium-99m triphosphonates and tetraphosphonates for the scintigraphic visualization of res-containing organs and lymph vessels, and a process for their preparation” (Hoechst Aktiengesellschaft, priority 1982, dated 1987):

Experiments:
[1] = Example 3: distribution of activity over the organs in rats, lyophilizate; type: in vivo, Sprague-Dawley rats; settings: 30 min
Procedure: 8 g of sodium 2,4,4-triphosphonobutyrate are dissolved in about 60 ml of double-distilled water, the pH of the solution then being 8.5. After the pH had been adjusted to 7 with 1N HCl, 120 mg of SnCl2.2H2 O in 3 ml of 1N HCl were added, the pH was adjusted to 6 using 0.1N NaOH, and the solution was made up to 160 ml with double-distilled water. All operations should be carried out under a protective atmosphere of nitrogen gas. The solution thus obtained is freeze-dried in individual 1 ml portions in snap-closure bottles which have previously been frozen with liquid nitrogen. The contents are covered with nitrogen and the bottles are closed.
After storage for some weeks, the lyophilizate is dissolved in 10 ml of physiologic saline containing 2 mCi of technetium-99m-pertechnetate. After 30 minutes, 3 Sprague-Dawley rats (about 200 g) each receive 0.1 ml of this solution injected into the femoral vein, and 30 minutes later the animals are sacrificed with ether and the distribution of activity over the organs is determined. The following mean figures (as percentage of the dose administered) result: […]

[2] = Organ distribution of 99mTc-labeled substances in rats 30 minutes after injection as a function of the amount of substance administered; type: in vivo; settings: for Blood/ml / Kidneys / Liver / Lung / Remainder of body / Spleen / Thyroid / tissue uptake at 0.5 h: 30 min after injection, n = 3; for accumulation in the liver and spleen compared with phytate / accumulation of activity in the kidneys, blood, femur and remainder of the body compared with phytate: all amounts of substance investigated; for suitability as diagnostic agent for visualization of RES-containing organs compared with 99mTc phytate: deduction from the animal experiments; for tissue uptake at 0.5 h: rat, in vivo, iv, 0.05 mg, read-out: Femur/g
Procedure: Assuming that 2-20 mg of TPB, ETP, PTP or phytate are administered to humans, and assuming that the weight of human is 80 kg, this corresponds to an amount administered of 25-250 μg/kg of body weight. Calculating on the basis of the body weight of rats weighing 200 g, then administration of 5-50 μg of TPB, ETP, PTP or phytate per rat exactly reflects the relationships.
Organ distribution of ^99m Tc TPB, ^99m TC ETP and ^99m Tc
phytate in rats (n = 3) 30
minutes after injection as a function of the amount of substance
(all data as a percentage of the amount of activity administered)

[3] = Comparison of 99mTc TPB, 99mTc PTP and 99mTc phytate after intravenous injection to dogs; type: in vivo; settings: intravenous, dogs; for decrease in activity via the liver after accumulation in the liver is complete: compared with phytate
[4] = Example 5: organ distribution of 99mTc ETP in rats; type: in vivo, Sprague-Dawley rats; settings: 30 min, intravenous
Procedure: 1.40 g of ethane-1,1,2,2-tetraphosphonic acid are dissolved in about 20 ml of double-distilled water and the pH of the solution is adjusted to 7.0 using 1N sodium hydroxide solution. The total volume of this solution is adjusted to 100 ml with double-distilled water and, while excluding oxygen, 11 mg of SnCl2.2H2 O in 5 ml of aqueous solution are added. The clear solution thus obtained is sterilized by filtration and filled, in 0.2 ml portions, into snap-closure bottles which have previously been cooled with liquid nitrogen, and is then freeze-dried. The contents are covered with nitrogen and the bottles are closed. A bottle then contains about 3.3 mg of Na salt of ETP (corresponding to about 2.7 mg of ETP) and about 11 μg of tin(II).
The substance is labeled with ^99m Tc by the addition of 5 ml of physiologic saline which contains 1.5 mCi of technetium-99m-pertechnetate.After a reaction time of 15 minutes, three Sprague-Dawley rats each received 0.1 ml of this solution by intravenous injection. 30 minutes later, the animals were sacrificed and the organ distribution of ^99m Tc ETP was measured. The following figures (as percentage of the dose administered) were found from this: […]

[5] = Accumulation of phosphoric acid derivatives investigated as technetium-99m diagnostic agents (bone, liver, RES); settings: in vivo
Description: It is possible to use phosphoric acid derivatives, particularly organic phosphonic acid derivatives, for bone scintigraphy. Many compounds have been investigated in the search for derivatives suitable as a technetium-99m diagnostic agent for bone.

[6] = Lymphatic scintigraphy on dogs; type: in vivo, beagle dogs
Procedure: In order to check the utilizability of the new diagnostic agent for lymphatic scintigraphy, lymphatic scintigraphy using ^99m Tc TPB was carried out on dogs.
A TPB labeling unit which contained CaCl2 as described in Example 4 was prepared with 5 ml of ^99m Tc-pertechnetate solution which contained 5 mCi of ^99m Tc per ml. Adult beagle dogs each received 0.3-0.4 ml of this solution injected subcutaneously into the hind paw. The change in the distribution of radioactivity with time over the hind legs was then followed using a gamma camera for 4 hours. The site of injection was shielded with lead in each case.

[7] = Example 2: organ distribution in rats, frozen solution labeled with 99mTc; type: in vivo, Sprague-Dawley rats; settings: femoral vein
Procedure: 400 mg of 2,4,4-triphosphonobutyric acid are dissolved in about 30 ml of double-distilled water. The pH of the solution, which is about 1.7 after this, is then adjusted to pH 6 using 1N NaOH. 8 mg of SnCl2.2H2 O in 1 ml of 0.1N HCl are added to this solution, and the pH is again adjusted to 6 using 0.1N NaOH, and then the solution is made up to 40 ml. All the operations are carried out under a protective atmosphere of nitrogen gas. The solution thus obtained is frozen in individual 1 ml portions.
After 3 days, the solution is thawed and reacted with 1 ml of a ^99m Tc-pertechnetate solution which contains 4.44 MBq (120 μCi) of ^99m Tc. After 30 minutes, Sprague-Dawley rats weighing 200 g each receive 0.5 ml of this solution injected into the femoral vein. 3 animals are sacrificed with ether at 30 minutes and at 2 hours after the injection, and the organ distribution is determined.

[8] = second amount column (printed 50 μg)
[9] = third amount column (printed 50 μg)

O=C([O-])C(CC(P(=O)(O)O)P(=O)(O)O)P(=O)(O)O.[Na+] (stereo not drawn) [sodium 2,4,4-triphosphonobutyrate]
Blood/ml ([1]; femoral vein, mean of 3 rats): 0.03 percentage of the dose adminis | Kidneys ([1]; femoral vein, mean of 3 rats): 0.08 percentage of the dose adminis | Liver ([1]; femoral vein, mean of 3 rats): 96.2 percentage of the dose adminis | Remainder of body ([1]; femoral vein, mean of 3 rats): 4.9 percentage of the dose adminis | Spleen ([1]; femoral vein, mean of 3 rats): 1.9 percentage of the dose adminis | Thyroid ([1]; femoral vein, mean of 3 rats): 0.03 percentage of the dose adminis | lungs ([1]; femoral vein, mean of 3 rats): 0.24 percentage of the dose adminis | recovered activity total ([1]; related to the dose administered): 103.4%

O=P(O)(O)C(C(P(=O)(O)O)P(=O)(O)O)P(=O)(O)O [ETP, ethane-1,1,2,2-tetraphosphonic acid]
Blood/ml ([2]; (50 μg)): 0.02 percentage of the amount of ac | Kidneys ([2]; (50 μg)): 0.12 percentage of the amount of activity administered | Liver ([2]; (50 μg)): 96.2 percentage of the amount of activity administered | Lung ([2]; (50 μg)): 0.18 percentage of the amount of activity administered | Remainder of body ([2]; (50 μg)): 7.8 percentage of the amount of activity administered | Spleen ([2]; (50 μg)): 2.10 percentage of the amount of activity administered | Thyroid ([2]; (50 μg)): 0.03 percentage of the amount of activity administered | Blood/ml [2, 8]: 0.04 percentage of the amount of ac | Kidneys [2, 8]: 0.16 percentage of the amount of activity administered | Liver [2, 8]: 95.2 percentage of the amount of activity administered | Lung [2, 8]: 0.21 percentage of the amount of activity administered | Remainder of body [2, 8]: 11.2 percentage of the amount of activity administered | Spleen [2, 8]: 2.13 percentage of the amount of activity administered | Thyroid [2, 8]: 0.03 percentage of the amount of activity administered | Blood/ml [2, 9]: 0.04 percentage of the amount of ac | Kidneys [2, 9]: 0.26 percentage of the amount of activity administered | Liver [2, 9]: 93.6 percentage of the amount of activity administered | Lung [2, 9]: 0.32 percentage of the amount of activity administered | Remainder of body [2, 9]: 10.4 percentage of the amount of activity administered | Spleen [2, 9]: 1.30 percentage of the amount of activity administered | Thyroid [2, 9]: 0.04 percentage of the amount of activity administered | accumulation in the liver and spleen compared with phytate [2]: markedly higher than that of phytate | accumulation of activity in the kidneys, blood, femur and remainder of the body compared with phytate [2]: clearly lower than with phytate | suitability as diagnostic agent for visualization of RES-containing organs compared with 99mTc phytate [2]: unambiguously superior | decrease in activity via the liver after accumulation in the liver is complete [3]: slower | total recovered activity [4]: 104.5% | Blood/ml ([4]; three rats): 0.02 percentage of the dose adminis | Kidneys ([4]; three rats): 0.12 percentage of the dose adminis | Liver ([4]; three rats): 96.2 percentage of the dose adminis | Remainder of body ([4]; three rats): 7.8 percentage of the dose adminis | Spleen ([4]; three rats): 2.1 percentage of the dose adminis | Thyroid ([4]; three rats): 0.03 percentage of the dose adminis | lungs ([4]; three rats): 0.18 percentage of the dose adminis | accumulation in bone [5]: virtually not at all | accumulation in the liver [5]: very preferentially accumulated in the liver

O=P(O)(O)C(CCC(P(=O)(O)O)P(=O)(O)O)P(=O)(O)O [BTP, butane-1,1,4,4-tetraphosphonic acid]
accumulation in bone [5]: virtually not at all | accumulation in the liver [5]: very preferentially accumulated in the liver

O=C(O)C(CC(P(=O)(O)O)P(=O)(O)O)P(=O)(O)O (stereo not drawn) [TPB, 2,4,4-triphosphonobutyric acid]
Blood/ml ([2]; (50 μg)): 0.05 percentage of the amount of ac | Kidneys ([2]; (50 μg)): 0.12 percentage of the amount of activity administered | Liver ([2]; (50 μg)): 95.8 percentage of the amount of activity administered | Lung ([2]; (50 μg)): 0.19 percentage of the amount of activity administered | Remainder of body ([2]; (50 μg)): 5.6 percentage of the amount of activity administered | Spleen ([2]; (50 μg)): 1.30 percentage of the amount of activity administered | Thyroid ([2]; (50 μg)): 0.03 percentage of the amount of activity administered | Blood/ml [2, 8]: 0.16 percentage of the amount of ac | Kidneys [2, 8]: 0.37 percentage of the amount of activity administered | Liver [2, 8]: 92.7 percentage of the amount of activity administered | Lung [2, 8]: 0.30 percentage of the amount of activity administered | Remainder of body [2, 8]: 11.5 percentage of the amount of activity administered | Spleen [2, 8]: 0.88 percentage of the amount of activity administered | Thyroid [2, 8]: 0.03 percentage of the amount of activity administered | Blood/ml [2, 9]: 0.19 percentage of the amount of ac | Kidneys [2, 9]: 0.39 percentage of the amount of activity administered | Liver [2, 9]: 88.7 percentage of the amount of activity administered | Lung [2, 9]: 0.29 percentage of the amount of activity administered | Remainder of body [2, 9]: 12.6 percentage of the amount of activity administered | Spleen [2, 9]: 0.99 percentage of the amount of activity administered | Thyroid [2, 9]: 0.03 percentage of the amount of activity administered | accumulation in the liver and spleen compared with phytate [2]: markedly higher than that of phytate | accumulation of activity in the kidneys, blood, femur and remainder of the body compared with phytate [2]: clearly lower than with phytate | suitability as diagnostic agent for visualization of RES-containing organs compared with 99mTc phytate [2]: unambiguously superior | tissue uptake at 0.5 h [2, 8]: 0.29 %ID/g | tissue uptake at 0.5 h [2, 9]: 0.3 %ID/g | suitability for lymphatic scintigraphy [6]: also suitable for lymphatic scintigraphy | excretion of activity with the urine ([3]; 30 min after injection): 0.6 % of the test dose | excretion of activity with the urine, compared with phytate [3]: markedly less | decrease in activity via the liver after accumulation in the liver is complete [3]: slower | Blood/ml ([7]; 30 min p.i.): 0.03 percentage of the dose adminis | Kidneys ([7]; 30 min p.i.): 1.74 percentage of the dose adminis | Liver ([7]; 30 min p.i.): 86.5 percentage of the dose adminis | Remainder of body ([7]; 30 min p.i.): 9.08 percentage of the dose adminis | Spleen ([7]; 30 min p.i.): 2.40 percentage of the dose adminis | Thyroid ([7]; 30 min p.i.): 0.05 percentage of the dose adminis | urine ([7]; 30 min p.i.): 1.75 percentage of the dose adminis | Blood/ml ([7]; 2 hours p.i.): 0.01 percentage of the dose adminis | Kidneys ([7]; 2 hours p.i.): 1.12 percentage of the dose adminis | Liver ([7]; 2 hours p.i.): 88.3 percentage of the dose adminis | Remainder of body ([7]; 2 hours p.i.): 8.27 percentage of the dose adminis | Spleen ([7]; 2 hours p.i.): 3.06 percentage of the dose adminis | Thyroid ([7]; 2 hours p.i.): 0.04 percentage of the dose adminis | urine ([7]; 2 hours p.i.): 2.02 percentage of the dose adminis | tissue uptake at 0.5 h ([7]; rat, bone, iv, 30 min p.i.): 0.17 %ID/g | tissue uptake at 2 h ([7]; rat, bone, iv, 2 hours p.i.): 0.22 %ID/g | accumulation in bone [5]: virtually not at all | accumulation in the liver [5]: very preferentially accumulated in the liver
